From patent publication US12329739B2, “Isoflavonoid compounds and methods for the treatment of cancer” (Aardvark Therapeutics, Inc., priority 2010, dated 2025)
pIC50: −log10 of the molar value.

Columns and labels:
[1] = test system: NCI-H460; assay: MTT proliferation assay, NCI-H460; format: cell-based, human; conditions: Homo sapiens; NSCLC, NCI-H460, 120 h of exposure
Method: (§1) The human non-small cell lung adenocarcinoma lines NCI-H1299 (CRL-5803), NCI-H460 (HTB-177), NCI-H358 (CRL-5807), NCI-H838 (CRL-5844), the human colorectal adenocarcinoma lines COLO 205 (CCL-222), HCT-15 (CCL-225) and the human gastric cancer cell line NCI-N87 (CRL-5822) were cultured in RPMI 1640 medium containing 2 g/L sodium bicarbonate (Hyclone/Invitrogen) supplemented with 2 mM L-glutamine (Gibco) 1 mM sodium pyruvate (Sigma), 10 mM HEPES (Sigma) and 4500 mg/L glucose (Sigma). The human non-small cell lung adenocarcinoma line NCI-H2126 (CCL-256) was cultured in DMEM:F12(1:1) (Hyclone/Invitrogen) containing 2.5 mM L-glutamine 2.4 g/L sodium bicarbonate supplemented with 5% fetal bovine serum (FBS), an additional 2 mM L-glutamine, 15 mM HEPES, 0.005 mg/ml insulin (Sigma), 0.01 mg/ml transferrin (Sigma), 30 nM sodium selenite (Sigma), 10 nM hydrocortisone (Sigma) and 10 nM beta-estradiol (Sigma). The human colorectal adenocarcinoma line HT-29 (HTB-38) and the human gastric cancer cell lines OE-19 (#96071721) and MKN1 (JCRB0252) were cultured in RPMI 1640 media supplemented with 2 mM L-glutamine.
(§2) Proliferation Assays. IC50 values were determined for each cell line. Cells were seeded in 96-well plates at an appropriate cell density as determined from growth kinetics analysis and cultured for 5 days in the absence and presence of the test compounds. Cell proliferation was assessed after the addition of 20 μl of 3-4,5 dimethylthiazol-2,5-diphenyl tetrazolium bromide (MTT, 5 mg/ml in PBS, Sigma) for 5 hrs at 37° C. according to manufacturer's instructions. IC50 values were calculated from semi-log plots of % of control proliferation on the y-axis against log dose on the x-axis.
(§3) Anti-proliferative Activity of Isoflavonoid Derivatives. IC50 values were determined for each cell line after 120 h of exposure.

[2] = test system: COLO205; assay: MTT proliferation assay, COLO205; format: cell-based, human; conditions: Homo sapiens, COLO 205; CRC, COLO205, 120 h of exposure
Method: as §1, §2, §3

[3] = test system: DU145; assay: MTT proliferation assay, DU145; format: cell-based; conditions: Homo sapiens, DU-145; Prostate, DU145, 120 h of exposure
Method: as §2, §3

Oc1ccc([C@H]2c3ccc(O)cc3OC[C@H]2c2ccc(O)cc2)cc1 [Compound 31, d-cis-3-(4-hydroxyphenyl)-4-(4-hydroxyphenyl)chroman-7-ol]
pIC50 [1]: 5.82 to 6.29
pIC50 [2]: 5.00 to 5.80
pIC50 [3]: 6.30 to 6.82
